Source: patent US20030095958A1, “Inhibitors of bace” (priority 2001, published 2003)

biological target: BACE (Homo sapiens, UniProt P56817); assay: Ki Determination for the Inhibition of BACE (FS-1 peptide fluorescence cleavage assay); format: biochemical; conditions: apparent Ki; 50 nM BACE, 10 μM FS-1 substrate, 0.1M sodium acetate pH 4.5
Method: Compounds were tested against BACE activity using the following modifications of the method described in J. Ermolieff et al. (2000) Biochemistry 39(51):16263.
All compound evaluations were performed in 0.1M sodium acetate (buffer), pH, 4.5, 10 μM substrate (FS-1 peptide as described in the reference above; this is commercially available), varying concentrations of the test compound or control (DMSO to yeild 2% vol/vol), and 50 nM BACE. The assay volume is 100 μL.
Two microliters of the test compound dissolved in DMSO are added to each well in a 96-well microtiter plate. Seventy eight microliters of BACE are mixed with buffer and added to each well then incubated at room temperature for 15 minutes. A stock solution of 50 μM FS-1 substrate was prepared by addition of an aliquot of FS-1 substrate which was dissolved in DMSO to the buffer and mixed well. The reaction is initiated by addition of 20 μL of the FS-1 mix to the remaining, preincubated assay components. The cleavage reaction of substrate to product is measured using a Molecular Devices fluorescence plate reader with the excitation and emission filter pairs of 355 nm and 495 nm, respectively. Apparent Ki values are determined by fitting the data to the integrated equation for competitive tight binding inhibition.

BACE, sequence (P56817 46-501): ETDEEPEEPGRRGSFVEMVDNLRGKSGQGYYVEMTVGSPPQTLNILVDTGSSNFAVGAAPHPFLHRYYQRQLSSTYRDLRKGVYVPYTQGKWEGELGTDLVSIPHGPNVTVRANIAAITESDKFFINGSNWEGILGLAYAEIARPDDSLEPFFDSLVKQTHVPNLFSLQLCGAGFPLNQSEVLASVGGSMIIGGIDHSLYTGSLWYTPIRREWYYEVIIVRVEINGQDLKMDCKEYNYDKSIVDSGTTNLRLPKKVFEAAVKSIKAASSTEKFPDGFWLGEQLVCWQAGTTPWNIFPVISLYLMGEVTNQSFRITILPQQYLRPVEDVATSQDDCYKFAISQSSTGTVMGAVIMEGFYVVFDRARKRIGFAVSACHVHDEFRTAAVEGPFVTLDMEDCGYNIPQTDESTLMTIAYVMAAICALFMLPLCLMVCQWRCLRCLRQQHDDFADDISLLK

SMILES	Ki [µM]
FC(F)(F)c1ccc(N2CCNCC2)c(NCc2ccc3ccccc3c2)c1 [Compound 100, Naphthalen-2-ylmethyl-(2-piperazin-1-yl-5-trifluoromethyl-phenyl)-amine]	3 to 30
O=C(Nc1cc(C(F)(F)F)ccc1N1CCNCC1)c1ccc(F)c2ccccc12 [Compound 101, 4-Fluoro-naphthalene-1-carboxylic acid (2-piperazin-1-yl-5-trifluoromethyl-phenyl)-amide]	> 30
O=C(Nc1cc(C(F)(F)F)ccc1N1CCNCC1)c1nccc2ccccc12 [Compound 102, Isoquinoline-1-carboxylic acid (2-piperazin-1-yl-5-trifluoromethyl-phenyl)-amide]	3 to 30
O=C(Nc1cc(-c2ccc(F)cc2)ccc1N1CCNCC1)c1cccc2ccccc12 [Compound 103, Naphthalene-1-carboxylic acid (4′-fluoro-4-piperazin-1-yl-biphenyl-3-yl)-amide]	3 to 30
O=C(Nc1cc(-c2ccc(F)c(Cl)c2)ccc1N1CCNCC1)c1cccc2ccccc12 [Compound 104, Naphthalene-1-carboxylic acid (3′-chloro-4′-fluoro-4-piperazin-1-yl-biphenyl-3-yl)-amide]	< 3
O=Cc1cc(-c2ccc(N3CCNCC3)c(NC(=O)c3cccc4ccccc34)c2)ccc1F [Compound 105, Naphthalene-1-carboxylic acid (4′-fluoro-3′-formyl-4-piperazin-1-yl-biphenyl-3-yl)-amide]	3 to 30
O=C(Nc1cc(-c2cccc(Cl)c2Cl)ccc1N1CCNCC1)c1cccc2ccccc12 [Compound 106, Naphthalene-1-carboxylic acid (2′,3′-dichloro-4-piperazin-1-yl-biphenyl-3-yl)-amide]	< 3
O=C(Nc1cc(-c2ccc(Cl)cc2Cl)ccc1N1CCNCC1)c1cccc2ccccc12 [Compound 107, Naphthalene-1-carboxylic acid (2′,4′-dichloro-4-piperazin-1-yl-biphenyl-3-yl)-amide]	< 3
O=C(Nc1cc(-c2cc(Cl)ccc2Cl)ccc1N1CCNCC1)c1cccc2ccccc12 [Compound 108, Naphthalene-1-carboxylic acid (2′,5′-dichloro-4-piperazin-1-yl-biphenyl-3-yl)-amide]	< 3
O=C(Nc1cc(-c2cc(Cl)cc(Cl)c2Cl)ccc1N1CCNCC1)c1cccc2ccccc12 [Compound 109, Naphthalene-1-carboxylic acid (2′,3′,5′-trichloro-4-piperazin-1-yl-biphenyl-3-yl)-amide]	< 3
O=C(Nc1cc(-c2cccnc2)ccc1N1CCNCC1)c1cccc2ccccc12 [Compound 110, Naphthalene-1-carboxylic acid (2-piperazin-1-yl-5-pyridin-3-yl-phenyl)-amide]	3 to 30
O=C(Nc1cc(-c2ccncc2)ccc1N1CCNCC1)c1cccc2ccccc12 [Compound 111, Naphthalene-1-carboxylic acid (2-piperazin-1-yl-5-pyridin-4-yl-phenyl)-amide]	3 to 30
Cc1cc(N2CCNCC2)c(NC(=O)c2cccc3ccccc23)cc1Br [Compound 112, Naphthalene-1-carboxylic acid (5-bromo-4-methyl-2-piperazin-1-yl-phenyl)-amide]	> 30
O=C(Nc1cc(C(F)(F)F)ccc1N1CCNCC1)c1ccc2ccccc2c1 [Compound 113, Naphthalene-2-carboxylic acid (2-piperazin-1-yl-5-trifluoromethyl-phenyl)-amide]	3 to 30
O=C(Nc1cc(C(F)(F)F)ccc1N1CCNCC1)c1cccc2ccccc12 [Compound 114, Naphthalene-1-carboxylic acid (2-piperazin-1-yl-5-trifluoromethyl-phenyl)-amide]	3 to 30
O=C(Nc1cc(C(F)(F)F)cc(NC(=O)c2ccc3ccccc3c2)c1N1CCNCC1)c1ccc2ccccc2c1 [Compound 115, 4-{2,6-Bis-[(naphthalene-2-carbonyl)-amino]-4-trifluoromethyl-phenyl}-piperazine]	3 to 30
FC(F)(F)c1ccccc1OCc1ccc(COc2ccccc2C(F)(F)F)c(N2CCNCC2)c1 [Compound 116, 1-[2,5-Bis-(2-trifluoromethyl-phenoxymethyl)-phenyl]-piperazine]	< 3
CC(C)(C)c1ccc(C(=O)Nc2cc(C(F)(F)F)ccc2N2CCNCC2)cc1 [Compound 117, 4-tert-Butyl-N-(2-piperazin-1-yl-5-trifluoromethyl-phenyl)-benzamide]	> 30
O=C(Nc1cc(Br)ccc1N1CCNCC1)c1cccc2ccccc12 [Compound 118, Naphthalene-1-carboxylic acid (5-bromo-2-piperazin-1-yl-phenyl)-amide]	> 30

SMILES	Ki [µM]
COc1cccc(-c2ccc(N3CCNCC3)c(NC(=O)c3cccc4ccccc34)c2)c1 [Compound 119, Naphthalene-1-carboxylic acid (3′-methoxy-4-piperazin-1-yl-biphenyl-3-yl)-amide]	> 30
COc1ccc(-c2ccc(N3CCNCC3)c(NC(=O)c3cccc4ccccc34)c2)cc1 [Compound 120, Naphthalene-1-carboxylic acid (4′-methoxy-4-piperazin-1-yl-biphenyl-3-yl)-amide]	3 to 30
O=C(Nc1cc(-c2ccc(Cl)cc2)ccc1N1CCNCC1)c1cccc2ccccc12 [Compound 121, Naphthalene-1-carboxylic acid (4′-chloro-4-piperazin-1-yl-biphenyl-3-yl)-amide]	3 to 30
O=C(Nc1cc(-c2ccccc2Cl)ccc1N1CCNCC1)c1cccc2ccccc12 [Compound 122, Naphthalene-1-carboxylic acid (2′-chloro-4-piperazin-1-yl-biphenyl-3-yl)-amide]	3 to 30
O=C(Nc1cc(-c2cccc(Cl)c2)ccc1N1CCNCC1)c1cccc2ccccc12 [Compound 123, Naphthalene-1-carboxylic acid (3′-chloro-4-piperazin-1-yl-biphenyl-3-yl)-amide]	3 to 30
Cc1ccc(-c2ccc(N3CCNCC3)c(NC(=O)c3cccc4ccccc34)c2)cc1 [Compound 124, Naphthalene-1-carboxylic acid (4′-methyl-4-piperazin-1-yl-biphenyl-3-yl)-amide]	3 to 30
O=C(Nc1cc(COc2ccccc2C(F)(F)F)ccc1N1CCNCC1)c1cccc2ccccc12 [Compound 125, Naphthalene-1-carboxylic acid [2-piperazin-1-yl-5-(2-trifluoromethyl-phenoxymethyl)-phenyl]-amide]	3 to 30
Cc1cccc(-c2ccc(N3CCNCC3)c(NC(=O)c3cccc4ccccc34)c2)c1 [Compound 126, Naphthalene-1-carboxylic acid (3′-methyl-4-piperazin-1-yl-biphenyl-3-yl)-amide]	3 to 30
O=C(Nc1cc(C(F)(F)F)cc(NC(=O)c2cccc3ccccc23)c1N1CCNCC1)c1cccc2ccccc12 [Compound 127, 4-{2,6-Bis-[(naphthalene-1-carbonyl)-amino]-4-trifluoromethyl-phenyl}-piperazine]	3 to 30
O=C(Nc1cc(-c2cccc(C(F)(F)F)c2)ccc1N1CCNCC1)c1cccc2ccccc12 [Compound 128, Naphthalene-1-carboxylic acid (4-piperazin-1-yl-3′-trifluoromethyl-biphenyl-3-yl)-amide]	3 to 30
O=C(Nc1cc(-c2ccc(C(F)(F)F)cc2)ccc1N1CCNCC1)c1cccc2ccccc12 [Compound 129, Naphthalene-1-carboxylic acid (4-piperazin-1-yl-4′-trifluoromethyl-biphenyl-3-yl)-amide]	< 3
O=C(Nc1cc(-c2ccc(Cl)c(Cl)c2)ccc1N1CCNCC1)c1cccc2ccccc12 [Compound 130, Naphthalene-1-carboxylic acid (3′,4′-dichloro-4-piperazin-1-yl-biphenyl-3-yl)-amide]	< 3
N#Cc1ccc(-c2ccc(N3CCNCC3)c(NC(=O)c3cccc4ccccc34)c2)cc1 [Compound 131, Naphthalene-1-carboxylic acid (4′-cyano-4-piperazin-1-yl-biphenyl-3-yl)-amide]	3 to 30
O=C(Nc1cc(Oc2ccccc2)ccc1N1CCNCC1)c1cccc2ccccc12 [Compound 132, Naphthalene-1-carboxylic acid (5-phenoxy-2-piperazin-1-yl-phenyl)-amide]	3 to 30
O=C(Nc1cc(Oc2ccc(Cl)cc2)ccc1N1CCNCC1)c1cccc2ccccc12 [Compound 133, Naphthalene-1-carboxylic acid [5-(4-chloro-phenoxy)-2-piperazin-1-yl-phenyl]-amide]	3 to 30
O=C(Cc1cccc2ccccc12)Nc1cc(C(F)(F)F)ccc1N1CCNCC1 [Compound 134, 2-Naphthalen-1-yl-N-(2-piperazin-1-yl-5-trifluoromethyl-phenyl)-acetamide]	> 30
O=S(=O)(Nc1cc(C(F)(F)F)ccc1N1CCNCC1)c1cccc2ccccc12 [Compound 135, Naphthalene-1-sulfonic acid (2-piperazin-1-yl-5-trifluoromethyl-phenyl)-amide]	> 30
O=S(=O)(Nc1cc(C(F)(F)F)ccc1N1CCNCC1)c1ccc2ccccc2c1 [Compound 136, Naphthalene-2-sulfonic acid (2-piperazin-1-yl-5-trifluoromethyl-phenyl)-amide]	> 30
O=S(=O)(Nc1cc(C(F)(F)F)ccc1N1CCNCC1)c1ccc(-c2ccccc2)cc1 [Compound 137, Biphenyl-4-sulfonic acid (2-piperazin-1-yl-5-trifluoromethyl-phenyl)-amide]	3 to 30
